Measurements published in patent US20020115619A1, “Compositions and methods for treatment of cystic fibrosis” (priority 2000, published 2002).
One block for each compound: values may come before it.

What was measured:
rat αβγENaC = assay: Amiloride-sensitive whole-cell current in Xenopus oocytes injected with αβγENaC cRNAs; type: cell-based
Experimental: (§1) Human WT-CFTR, human ΔF508-CFTR, and mouse α−, β−and γ ENaC cRNAs were prepared using a cRNA synthesis kit (m-MESSAGE mMACHINE, Ambion Inc, Austin, Tex.) according to the manufacturer's protocol. cRNA concentrations were determined spectroscopically. Oocytes obtained from adult female Xenopus laevis (NASCO Fort Atkinson, Wis.) were defolliculated and maintained at 18° C. in modified Barth's saline (88 mM NaCl, 1 mM KCl, 2.4 mM NaHCO3, 15 mM Hepes pH 7.6, 0.3 mM Ca(NO3)2, 0.41 mM CaCl2, 0.82 MM MgSO4, 10 μg/ml sodium penicillin, 10 μg/ml streptomycin sulfate, 100 μg/ml gentamicin sulfate). […]
(§2) Whole-cell current measurements were made 24 to 48 hours after injection using the two-electrode voltage clamp method (GeneClamp 500 amplifier-Axon Instruments, Foster City, Calif.). […] The whole-cell currents were measured by voltage clamping the oocytes in 20 mV steps between −140 mV to +60 mV adjusted for baseline transmembrane potential. Whole cell currents (I) were digitized at 200 Hz during the voltage steps, recorded directly onto a hard disk and analyzed using pClamp 8 software (Axon Instruments, Foster City, Calif.). […]
The difference in whole-cell currents measured in the absence and presence of 10 μM amiloride was used to define the amiloride-sensitive Na^+current that was mediated by ENaC. […] Whole-cell currents were measured at −100 mV. […]

human WT-CFTR = molecular target: T1, human WT-CFTR (Homo sapiens, UniProt P13569); assay: Two-electrode voltage clamp whole-cell current in Xenopus oocytes injected with WT-CFTR cRNA; type: cell-based; conditions: FIG. 9
T1 construct: expressed in transfected cells; host or cells: Xenopus laevis oocytes, cRNA injection (10 ng)
Experimental: as §1, §2
(§3) The difference in whole-cell currents measured in the absence and presence of 10 μM amiloride was used to define the amiloride-sensitive Na^+current that was mediated by ENaC. […]

G551D = molecular target: T2, G551D (Homo sapiens, UniProt P13569, G551D); conditions: G551D patients; standard deviation 1.2 mV; cited from earlier work
T2 construct: host or cells: nasal epithelium of CF patients carrying G551D (endogenous protein)

[1] = 16 milligrams per kilogram per day, oral; cited from earlier work
ΔF508-CFTR [2] = molecular target: T3, ΔF508-CFTR (Homo sapiens, UniProt P13569, DEL508-508); conditions: cited from earlier work
ΔF508-CFTR [3] = molecular target: T3, ΔF508-CFTR; assay: Two-electrode voltage clamp whole-cell current in Xenopus oocytes injected with ΔF508-CFTR cRNA; type: cell-based; design: expressed in transfected cells; host or cells: Xenopus laevis oocytes, cRNA injection (10 ng); conditions: −100 mV, FIG. 8
Experimental: as §1, §2, §3

[4] = cited from earlier work

T3 sequence (P13569 with tags, fused parts or gaps DEL508-508): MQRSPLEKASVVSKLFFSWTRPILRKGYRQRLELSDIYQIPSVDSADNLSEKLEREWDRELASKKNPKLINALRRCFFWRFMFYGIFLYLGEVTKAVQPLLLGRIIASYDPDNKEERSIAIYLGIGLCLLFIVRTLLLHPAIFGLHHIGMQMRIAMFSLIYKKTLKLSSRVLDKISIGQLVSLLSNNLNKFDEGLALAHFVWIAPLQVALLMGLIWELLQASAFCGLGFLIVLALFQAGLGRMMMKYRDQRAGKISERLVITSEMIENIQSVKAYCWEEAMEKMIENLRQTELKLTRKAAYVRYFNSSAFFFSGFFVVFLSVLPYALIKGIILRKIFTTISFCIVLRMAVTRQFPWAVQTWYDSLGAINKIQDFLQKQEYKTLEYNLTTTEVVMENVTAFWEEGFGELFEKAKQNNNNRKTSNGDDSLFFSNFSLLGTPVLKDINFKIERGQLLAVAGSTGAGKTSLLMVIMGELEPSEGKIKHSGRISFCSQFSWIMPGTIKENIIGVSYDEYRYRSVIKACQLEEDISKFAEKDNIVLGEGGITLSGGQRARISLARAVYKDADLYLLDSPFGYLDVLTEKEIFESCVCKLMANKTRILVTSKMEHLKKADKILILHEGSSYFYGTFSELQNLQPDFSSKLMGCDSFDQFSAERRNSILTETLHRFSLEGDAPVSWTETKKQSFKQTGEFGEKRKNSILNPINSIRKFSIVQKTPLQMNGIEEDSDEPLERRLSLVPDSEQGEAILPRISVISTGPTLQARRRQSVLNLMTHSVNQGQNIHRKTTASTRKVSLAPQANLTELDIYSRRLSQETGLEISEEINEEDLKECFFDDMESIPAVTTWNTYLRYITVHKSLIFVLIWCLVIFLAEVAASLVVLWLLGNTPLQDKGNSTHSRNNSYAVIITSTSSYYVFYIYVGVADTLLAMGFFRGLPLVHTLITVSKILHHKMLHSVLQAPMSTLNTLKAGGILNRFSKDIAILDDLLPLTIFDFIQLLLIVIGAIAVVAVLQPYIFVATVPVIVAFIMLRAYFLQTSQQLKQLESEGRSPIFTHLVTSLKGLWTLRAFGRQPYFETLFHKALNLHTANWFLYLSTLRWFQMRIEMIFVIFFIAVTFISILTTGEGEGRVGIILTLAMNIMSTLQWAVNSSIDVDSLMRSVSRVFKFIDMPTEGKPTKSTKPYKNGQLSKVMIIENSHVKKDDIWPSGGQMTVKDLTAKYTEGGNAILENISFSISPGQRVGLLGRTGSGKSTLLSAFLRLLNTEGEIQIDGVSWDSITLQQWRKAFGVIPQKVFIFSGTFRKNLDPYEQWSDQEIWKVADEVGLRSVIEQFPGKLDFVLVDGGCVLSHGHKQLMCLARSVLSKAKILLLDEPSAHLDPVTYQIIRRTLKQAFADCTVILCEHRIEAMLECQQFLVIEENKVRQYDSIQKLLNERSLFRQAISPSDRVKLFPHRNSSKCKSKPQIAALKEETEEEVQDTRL
T1 sequence (P13569 whole entry): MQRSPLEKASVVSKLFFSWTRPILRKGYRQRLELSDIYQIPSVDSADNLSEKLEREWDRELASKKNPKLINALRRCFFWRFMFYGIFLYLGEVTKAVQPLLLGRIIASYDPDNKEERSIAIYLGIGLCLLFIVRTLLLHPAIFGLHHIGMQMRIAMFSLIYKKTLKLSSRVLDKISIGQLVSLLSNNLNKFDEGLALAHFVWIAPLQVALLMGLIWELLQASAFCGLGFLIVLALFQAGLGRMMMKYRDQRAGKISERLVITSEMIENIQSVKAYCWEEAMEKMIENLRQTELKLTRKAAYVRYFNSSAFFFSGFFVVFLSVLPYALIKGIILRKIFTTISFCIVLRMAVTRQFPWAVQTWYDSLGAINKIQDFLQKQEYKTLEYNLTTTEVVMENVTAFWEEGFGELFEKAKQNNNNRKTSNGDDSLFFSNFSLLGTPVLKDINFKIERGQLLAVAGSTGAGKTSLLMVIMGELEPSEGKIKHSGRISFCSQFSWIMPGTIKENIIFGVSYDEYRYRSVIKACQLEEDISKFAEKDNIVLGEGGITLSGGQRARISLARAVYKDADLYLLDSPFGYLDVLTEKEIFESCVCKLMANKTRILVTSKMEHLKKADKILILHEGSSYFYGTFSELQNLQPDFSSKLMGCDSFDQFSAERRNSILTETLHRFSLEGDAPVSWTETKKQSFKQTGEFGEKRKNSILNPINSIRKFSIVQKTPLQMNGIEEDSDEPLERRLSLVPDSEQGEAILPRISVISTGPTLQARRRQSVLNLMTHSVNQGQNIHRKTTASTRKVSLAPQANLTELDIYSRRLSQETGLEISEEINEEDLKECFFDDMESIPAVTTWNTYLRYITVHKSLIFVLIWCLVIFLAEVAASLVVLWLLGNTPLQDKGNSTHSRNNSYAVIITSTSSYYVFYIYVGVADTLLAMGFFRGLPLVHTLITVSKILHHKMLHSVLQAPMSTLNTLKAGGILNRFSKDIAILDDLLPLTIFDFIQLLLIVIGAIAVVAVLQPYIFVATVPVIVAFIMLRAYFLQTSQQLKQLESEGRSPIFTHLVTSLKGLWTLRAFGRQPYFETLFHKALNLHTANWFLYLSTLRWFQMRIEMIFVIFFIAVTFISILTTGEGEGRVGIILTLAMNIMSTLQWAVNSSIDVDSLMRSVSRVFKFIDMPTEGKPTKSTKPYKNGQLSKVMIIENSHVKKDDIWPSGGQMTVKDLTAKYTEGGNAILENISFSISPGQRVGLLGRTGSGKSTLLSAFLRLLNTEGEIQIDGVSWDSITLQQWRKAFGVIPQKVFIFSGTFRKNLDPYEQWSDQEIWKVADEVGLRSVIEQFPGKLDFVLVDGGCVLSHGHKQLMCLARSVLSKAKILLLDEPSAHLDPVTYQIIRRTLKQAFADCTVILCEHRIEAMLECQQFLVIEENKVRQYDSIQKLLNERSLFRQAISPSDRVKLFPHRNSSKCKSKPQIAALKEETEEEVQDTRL
T2 sequence (P13569 whole entry G551D): as the sequence (P13569 whole entry) above, with G551D counted along it

SMILES: N=C(N)NC(=O)c1nc(Cl)c(N)nc1N [amiloride]
inhibition of whole-cell current by amiloride (rat αβγENaC; 10 μM amiloride, oocytes injected with αβγENaC): A large fraction of the current can be inhibited

WT-CFTR whole-cell current after forskolin/IBMX plus genistein (human WT-CFTR; 10 μM forskolin/100 μM IBMX/50 μM genistein): 2.57±0.45 μA
fold increase of forskolin/IBMX-stimulated WT-CFTR current by addition of genistein (human WT-CFTR; 50 μM genistein, −100 mV): 2 fold
ΔF508-CFTR-mediated whole-cell current after forskolin/IBMX/genistein (ΔF508-CFTR [3]; 10 μM forskolin/100 μM IBMX/50 μM genistein, ΔF508-CFTR alone): 1.82±0.4 μA
fold increase of forskolin/IBMX-stimulated ΔF508-CFTR-mediated current by addition of genistein (ΔF508-CFTR [3]; 50 μM genistein added to 10 μM forskolin/100 μM IBMX): 5 fold
SMILES: O=c1c(-c2ccc(O)cc2)coc2cc(O)cc(O)c12 [genistein]
effect on amiloride-sensitive current of genistein alone or added before forskolin/IBMX (rat αβγENaC; ENaC alone, unpublished data): decreased
average repolarization of the NPD during genistein perfusion (G551D): 2.4 mV
side effects in Phase I clinical trials [1]: no side effects noted
enhancement of cAMP-dependent activation of ΔF508-CFTR (ΔF508-CFTR [2]): ≤ 20 fold
activation of ΔF508-CFTR by the compound itself (ΔF508-CFTR [2]; without cAMP stimulation): does not activate ΔF508-CFTR by itself

SMILES: O=C(O)CCCc1ccccc1 [4PBA, 4-phenylbutyrate]
commonly reported side effects in chronic therapy ([4]; FDA approved use, urea cycle disorders, 20 grams per day oral): mild stomach upset and an occasional bad taste in the mouth
side effects related to 4PBA therapy during trial ([4]; pilot CF trial, 19 grams per day, one week): no significant side effects
